Experiments:
[1] = system: Htt-72Q-expressing primary cortical neurons; experiment: Cell death by nuclear morphology (Hoechst 33342); assay type: cell-based, mouse; details: vs. Htt-72Q (0 μM)
Method: Mouse primary cortical and striatal neurons from embryonic day (E) 15.5 Swiss Webster mouse fetuses (Taconic) were first plated in the minimal essential medium (MEM) containing 10% FBS, 0.45% glucose, 1 mM sodium pyruvate, 2 mM glutamine, 20 U/ml penicillin and 20 μg/ml streptomycin, for 3 h and then maintained in serum-free Neurobasal medium (Life Technologies) containing NeuroCult™ SM1 neuronal supplement ([…] Technologies), 0.5 mM glutamine and 25 μM glutamate for the first 3 d in a humidified incubator (37° C. in 5% CO2). Half of the medium was replaced with Neurobasal medium with SM1 and 0.5 mM glutamine every 3 days. Primary cortical neurons plated on 96-well flat clear bottom black plates (Corning #3904) at 4×10^4 cells/well were infected with Htt exon1 expression lentivirus (Htt-25Q or Htt-72Q) or control empty vector lentivirus at 5 days in vitro (DIV 5). Primary striatal neurons plated on 96-well plates at 1×10^5 cells/well were infected with Htt exon1 expression lentivirus at DIV 4. Viral copy number was adjusted for transduction of neurons on the basis of titer measured using the Lenti-X qRT-PCR titration kit (Clontech), and equal numbers of viral particles of Htt-25Q and Htt-72Q expressing lentiviruses were used for transduction. For the experiments to test effects of DNMT inhibitors, neurons were treated with inhibitors six hours after Htt lentiviral infection. […]

[2] = system: R6/2 HD mouse brain; experiment: icv infusion in R6/2 mice, striatal qRT-PCR; assay type: in vivo; details: 0.1 mM in saline icv infusion by osmotic pump from 6 weeks of age, one week, vs. R6/2-saline

SMILES | Htt-72Q induced cell death (condensed or fragmented nuclei) [1] | striatal Penk RNA [2] | striatal levels of Drd2, Ppp1r1b, Rasd2, and Adora2a mRNA [2]
Nc1ncn([C@H]2C[C@H](O)[C@@H](CO)O2)c(=O)n1 [decitabine, 5-aza-2′-deoxycytidine] | blocked Htt-72Q induced cell death |  | 
Nc1nc(=O)n([C@H]2C[C@H](O)[C@@H](CO)O2)cc1F [FdCyd, 5-fluoro-2′-deoxycytidine] |  | trend towards increasing | restored

From patent US10842807B2, “Methods of treating neurodegenerative disorders comprising DNA methyltransferase inhibitors” (Washington University, priority 2016, dated 2020)
